The text below walks through data of PubChem BioAssay (NCI).

Test systems include COLO 205 colon; SK-MEL-5 melanoma; BT-549 breast; HCT-15 colon; PC-3 prostate; NCI/ADR-RES ovarian; SF-539 CNS; HS 578T breast; HCC-2998 colon; A549 NSCLC.
Assay in all cases: inhibition of tumour cell growth, NCI panel, 48 h

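The compound was tested at five concentrations on cells cultured in 96-well plates, with a 48-hour exposure period. GI50: concentration for 50% inhibition of growth. TGI denotes the concentration required for complete inhibition of growth.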 Where a SMILES comes first, the peptide text is derived from it. [ ]: non-standard residue; d: D form. The star is where a group is joined. Phe(4-NO2) = N[CH](Cc1ccc([N+](=O)[O-])cc1)C(=O)O; Boc = CC(C)(C)OC(=O)*; OBn = c1ccc(CO*)cc1

In the case of `c1ccc(CNc2c3c(nc4ccccc24)CCC3)cc1`, the TGI with COLO 205 colon worked out at 25 µM; in the assay on SK-MEL-5 melanoma, 24.4 µM; in the assay on BT-549 breast it was 37.1 µM; with HCT-15 colon it was 68.4 µM; in the assay on PC-3 prostate, 33.3 µM; in the assay on NCI/ADR-RES ovarian, 44.2 µM. For the same compound, the TGI worked out at 36.7 µM with SF-539 CNS, 65.5 µM in the assay with HS 578T breast, 26.5 µM in the assay on HCC-2998 colon and 38.9 µM with A549 NSCLC.

Consider `Cc1ccc(N=Nc2c(C)nn(C(=O)CC(=O)Nc3ccccc3)c2C)cc1C`, for which the TGI in the assay on COLO 205 colon, with SK-MEL-5 melanoma, in the assay with BT-549 breast, in the assay on HCT-15 colon, in the assay with PC-3 prostate and with NCI/ADR-RES ovarian was above 100 µM each time. Besides, the TGI in the assay with SF-539 CNS, with HS 578T breast, in the assay on HCC-2998 colon and with A549 NSCLC was above 100 µM each time.

Regarding `CCOC(C[Se]CC(OCC)OCC)OCC`, the TGI with COLO 205 colon is above 100 µM; with SK-MEL-5 melanoma, 29.6 µM; in the assay with BT-549 breast it was 94 µM; in the assay with HCT-15 colon, above 100 µM; in the assay on PC-3 prostate, above 100 µM; with NCI/ADR-RES ovarian it was above 100 µM. Moreover, the TGI in the assay with SF-539 CNS is 62.4 µM; with HS 578T breast it was 45.9 µM; with HCC-2998 colon, above 100 µM; with A549 NSCLC, above 100 µM.

Turning to `N#CC1=C2Sc3ccccc3N2[C@H](c2ccccc2)[C@H]2COC(=O)[C@@H]12`, the TGI in the assay with COLO 205 colon is above 100 µM; with SK-MEL-5 melanoma, above 100 µM; in the assay with BT-549 breast, 70.6 µM; with HCT-15 colon it was above 100 µM; in the assay on PC-3 prostate, above 100 µM; with NCI/ADR-RES ovarian, above 100 µM. In addition, the TGI with SF-539 CNS, in the assay on HS 578T breast, with HCC-2998 colon and in the assay with A549 NSCLC was above 100 µM in each case.

With `COc1ccc(CCn2cnc3ccccc32)cc1`, the TGI with COLO 205 colon, in the assay with SK-MEL-5 melanoma, in the assay with BT-549 breast, in the assay on HCT-15 colon, in the assay with PC-3 prostate and with NCI/ADR-RES ovarian was above 100 µM each time. Besides, the TGI in the assay on SF-539 CNS, with HS 578T breast, with HCC-2998 colon and in the assay with A549 NSCLC was above 100 µM each time.

On to `O=C(Nc1sccc1S(=O)(=O)c1ccccc1)c1cccnc1`, for which the TGI was 18 µM with COLO 205 colon; above 26.3 µM in the assay with SK-MEL-5 melanoma; above 86.1 µM in the assay with BT-549 breast; above 100 µM in the assay on HCT-15 colon; above 100 µM with PC-3 prostate; above 52.7 µM with NCI/ADR-RES ovarian. Further, the TGI with SF-539 CNS was 38.2 µM; in the assay on HS 578T breast it was above 100 µM; with HCC-2998 colon, above 100 µM; with A549 NSCLC it was above 100 µM.

Consider `Cn1ccnc1S/C(=C\C=C(C#N)C#N)c1ccc(Cl)cc1`, for which the TGI was above 35.6 µM with COLO 205 colon; 3.59 µM in the assay on SK-MEL-5 melanoma; above 28.7 µM in the assay with BT-549 breast; 9.11 µM in the assay on HCT-15 colon; 9.22 µM in the assay with PC-3 prostate; 7.85 µM in the assay on NCI/ADR-RES ovarian. Also, the TGI is 6.58 µM in the assay on SF-539 CNS, 13.6 µM in the assay on HS 578T breast, 9.54 µM in the assay on HCC-2998 colon and 22.6 µM in the assay on A549 NSCLC. Further, in the assay with BT-549 breast, the GI50 is 5.14 µM.

Regarding `Oc1ccc(/C=C\c2nnc(/C=C\c3ccc(O)c(O)c3)s2)cc1O`, the TGI was 22.5 µM in the assay on COLO 205 colon; 13.9 µM with SK-MEL-5 melanoma; 40.6 µM in the assay on BT-549 breast; 16.9 µM with HCT-15 colon; 29.3 µM with PC-3 prostate; above 59.2 µM with NCI/ADR-RES ovarian. Also, the TGI in the assay on SF-539 CNS is 13.8 µM; in the assay with HS 578T breast, 28.7 µM; with HCC-2998 colon, 23.9 µM; in the assay with A549 NSCLC, above 52.8 µM.

Regarding `COC(=O)Cc1ccc2c(c1)Sc1ccc(CC(=O)OC)cc1N2C`, the TGI in the assay with COLO 205 colon is 53.8 µM; in the assay with SK-MEL-5 melanoma, 26.3 µM; in the assay with BT-549 breast it was 91.7 µM; with HCT-15 colon, above 92.6 µM; with PC-3 prostate, above 100 µM; with NCI/ADR-RES ovarian, above 68.3 µM. For the same compound, the TGI was above 100 µM in the assay on SF-539 CNS, above 89.3 µM with HS 578T breast, above 100 µM in the assay on HCC-2998 colon and above 90.3 µM with A549 NSCLC.

In the case of `O=C(NCCN(CCNC(=O)c1cccc(=O)n1O)CCN(CCNC(=O)c1cccc(=O)n1O)CCNC(=O)c1cccc(=O)n1O)c1cccc(=O)n1O`, the TGI in the assay on COLO 205 colon, with SK-MEL-5 melanoma, in the assay on BT-549 breast, in the assay on HCT-15 colon, in the assay on PC-3 prostate and in the assay with NCI/ADR-RES ovarian was above 100 µM in each case. For the same compound, the TGI with SF-539 CNS, in the assay with HS 578T breast, with HCC-2998 colon and in the assay on A549 NSCLC was above 100 µM throughout.

Turning to `COC(=O)CCC(NC(=O)OC(C)(C)C)C(=O)NC(Cc1ccc([N+](=O)[O-])cc1)C(=O)NCC(=O)OCc1ccccc1` (stereo unspecified) (Boc-Glu(OMe)-[Phe(4-NO2)]-Gly-OBn; configuration not given here), the TGI is above 100 µM in the assay with COLO 205 colon; above 100 µM with SK-MEL-5 melanoma; 66.9 µM in the assay on BT-549 breast; above 100 µM in the assay with HCT-15 colon; above 100 µM in the assay on PC-3 prostate; above 100 µM with NCI/ADR-RES ovarian. Further, the TGI in the assay on SF-539 CNS is 63.6 µM; with HS 578T breast, above 64.4 µM; in the assay on HCC-2998 colon, above 100 µM; in the assay on A549 NSCLC it was above 100 µM.

Regarding `COc1ccc(N(C(=O)Nc2ccc(Cl)c(Cl)c2)c2ccccc2)cc1`, the TGI in the assay on COLO 205 colon, in the assay with SK-MEL-5 melanoma, in the assay on BT-549 breast, in the assay on HCT-15 colon, with PC-3 prostate and in the assay on NCI/ADR-RES ovarian was above 10 µM in each case. Moreover, the TGI in the assay with SF-539 CNS, with HS 578T breast, in the assay with HCC-2998 colon and in the assay on A549 NSCLC was above 10 µM each time.
